The source of these data is patent US20080146657A1, “Plant-Origin Alpha3-Adrenoceptor Agonist and Use of the Same” (priority 2003, published 2008).

Data set [1] addresses T1, human β3-adrenergic receptor (Homo sapiens, UniProt P13945).
T1 construct: expressed in transfected cells; vector pTracer-EF A
Briefly: Measurement of human β3-adrenergic receptor agonist activity (intracellular cAMP, recombinant CHO-K1 cells). It counts as cell-based. How it is done:
The obtained recombinant cells were cultured in a 96-well microplate until the cell density reaches 100%. After the medium was removed, the cells were washed once with Dulbecco's modified phosphate buffer solution (hereinafter, abbreviated as PBS; TaKaRa), and then 100 μL of an assay buffer [DMEM, 10% FCS, 20 mM HEPES (pH 7.2), 0.1 mM isobutylmethylxanthine] containing 10 μM isoproterenol was added. As a control, the assay buffer was used without addition of isoproterenol. After incubation at 37° C. for 20 minutes, the cells were washed once with PBS, and then the amount of intracellular cAMP were quantified using a cAMP EIA Kit (Amersham Bioscience). […] The selected recombinant cells were further cultured. […]
The human β3-adrenergic receptor-expressing recombinant 6H4-2d3 was cultured in a 96-well microplate in DMEM containing 10% FCS and 500 μg/mL Zeocin at 37° C. in a 5% CO2 atmosphere. […] The cells were washed once with PBS, and an assay buffer [DMEM, 10% FCS, 20 mM HEPES (pH 7.2), 0.1 mM isobutylmethylxanthine] supplemented with the test substance to be measured was added at 100 μL/well. After incubation at 37° C. for 10 minutes, the cells were washed once with PBS, and then their intracellular cAMP levels were quantified using a cAMP EIA Kit (Amersham Bioscience). […] The same test substance was measured three times and the mean and standard deviation of the measurements were used. […]

Data set [2] deals with rat β-adrenergic receptor. Particulars: rat adipocytes treated with quercetin; cited from earlier work.
The next data set deals with 3T3-L1 adipocytes. Briefly: Measurement of lipolytic effect using 3T3-L1 cells (glycerol release). It counts as cell-based, mouse. As to conditions: 5 μM to 500 μM; 3 days incubation. How it is done: 3T3-L1 cells which are adipocyte precursor cells derived from mice (purchased from Human Science Research Resource Bank) were added into a 96-well plate at 1×10^4 cells/well, and then cultured in Dulbecco's modified Eagle medium (D-MEM, GIBCO) supplemented with 10% fetal calf serum (FCS) at 37° C. in a 5% CO2 atmosphere. To induce differentiation to adipocytes, right before the cells reaches confluency, the medium was exchanged with 10% FCS-containing D-MEM supplemented with 0.5 mM 3-isobutyl-1-methylxanthine, 2×10^−7 M dexamethasone, and 0.8 μM insulin. Two days later, the medium was exchanged with 10% FCS-containing D-MEM supplemented only with 0.8 μM insulin. […] The culture medium of the cells cultured in the 96-well plate were removed by aspiration, 10% FCS-containing D-MEM containing the test substance was added at 100 μL/well, and after incubation for 3 days, 80 μL of the culture medium was collected from each well, and the amount of glycerol in the culture medium was determined using “F-Kit Glycerol” (Boehringer Mannheim). […] To a test medium, 0.5 to 500 μg/mL of dried lotus leaf extract, 0.5 to 500 μM of quercetin, and 10^−8 M to 10^−5 M of isoproterenol as a positive control were added individually, and the amount of glycerol released into the medium due to degradation of the fat stored in 3T3-L1 adipocytes was measured.

For data set [3] the following is noted: cited from earlier work.

Structures are written as SMILES. Where two headings read alike, the source gives them in different places.

T1 sequence (P13945 1-402 limits assumed): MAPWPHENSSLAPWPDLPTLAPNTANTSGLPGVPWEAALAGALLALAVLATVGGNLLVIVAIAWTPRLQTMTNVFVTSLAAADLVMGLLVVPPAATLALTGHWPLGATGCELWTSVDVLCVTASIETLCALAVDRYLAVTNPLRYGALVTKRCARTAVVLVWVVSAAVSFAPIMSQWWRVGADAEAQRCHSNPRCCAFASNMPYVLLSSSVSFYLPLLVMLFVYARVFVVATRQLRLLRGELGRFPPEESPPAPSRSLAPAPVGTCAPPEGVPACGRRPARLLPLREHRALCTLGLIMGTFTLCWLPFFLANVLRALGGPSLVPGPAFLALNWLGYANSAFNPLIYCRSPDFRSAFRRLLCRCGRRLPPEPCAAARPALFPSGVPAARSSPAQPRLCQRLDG

In the case of `O=C(O)[C@H]1O[C@@H](Oc2c(-c3ccc(O)c(O)c3)oc3cc(O)cc(O)c3c2=O)[C@H](O)[C@@H](O)[C@@H]1O` [Q3GA, quercetin 3-O-β-D-glucuronide], the “β3-adrenergic receptor agonist activity (cAMP)” value in data set [1] (1 μM, 10 μM, 100 μM, 1000 μM, compared with quercetin) was “β3-adrenergic receptor agonist activity similar to that of quercetin”.

As for `O=c1c(O)c(-c2ccc(O)c(O)c2)oc2cc(O)cc(O)c12` [quercetin, 3,3′,4′,5,7-pentahydroxyflavone], in data set [1] (15 μM, 30 µM, 60 μM, only in CHO-K1 cells expressing the receptor, not in non-expressing CHO-K1), the “accumulation of cAMP” value is recorded as “significant accumulation of cAMP”. Moreover, the cAMP accumulation result in data set [2] is listed as “cAMP accumulates”. Further, the “Lipolysis (glycerol released into the medium)” value with 3T3-L1 adipocytes is “significantly promoted”. In addition, the Solubility result in data set [3] (boiling water) is listed as “slightly soluble”; in data set [3] (cold alcohol-ether) it was “poorly soluble”; in data set [3] (cold water), “insoluble”; in data set [3] (hot alcohol-glacial acetic acid), “readily soluble”.
